These results are taken from US20060166937A1, “Bisphosphonates for the treatment of atherosclerosis and device comprising them” (priority 2002, published 2006).

In data set [1] the test system is patient with end stage renal failure undergoing dialysis. As to the kind of experiment: Arterial and valve calcification in a renal dialysis patient. Particulars: 90 mg 2-hour i.v. infusion once a month for three months, one year following initial treatment. Type of data set: in vivo, human. The method, then:
The Effect of a Bisphosphonate on Arterial and Valve Calcification in a Renal Dialysis Patient A patient with end stage renal failure undergoing dialysis was diagnosed with severe osteoporosis. The patient was treated with 90 mg of pamidronate disodium administered via a 2-hour intravenous infusion once a month for a total of three months. […] This reduction in calcification was independently corraborated by three physicians who viewed the radiographic images in a blinded fashion.

The subject of data set [2] is LDLr−/− mice. The data set is described as follows: Mouse model of progression of advanced atherosclerosis with vulnerable plaques (arterial calcification, valve calcification, plaque stabilization). Type of data set: in vivo. The method, then: A mouse model of progression of advanced atherosclerosis with development of vulnerable plaques was employed. Male, 4-6 week old LDLr−/− mice were divided into treatment groups of 18-20 animals each. […] The remaining LDLr−/− animals were dosed subcutaneously once per day with either vehicle or zoledronic acid solution (10 mg/kg/day) five out of seven days a week from week from week 15 through week 18 of diet administration. From weeks 19 through 22, no treatment was administered, however mice remained on the atherosclerosis-inducing high cholesterol/cholic acid diet. Mice were sacrificed at the end of week 22 and the heart and aorta were removed. The upper portion of the heart attached to the most proximal portion of the aorta containing the aortic sinus were embedded in OCT and frozen. 10 micron-thick sections were cut through the aortic sinus using a cryostat. Twenty-eight sections per animal were stained with von Kassa and/or hematoxylin. Cross-sectional areas were analyzed by planimetry to allow determination of atherosclerotic lesion area and extent of calcification within the heart valves. The remaining aorta, from the ascending aorta to the iliac bifurcation, as well as the major branches of the aorta were fixed, parafin embedded and cross sectioned for histologic analysis. Atherosclerosis extent and lesion composition was determined for the aorta and innominate (also called brachiocephalic) arteries using approriate staining methodology including hemotoxylin and eosin staining, Verhoff von Giessen staining for elastin, Von Kassa staining for calcium, and immunohistochemical stains for inflammatory cells.

Data set [3] relates to rat carotid arteries, balloon injured. The data set is described as follows: 28 day rat carotid artery balloon injury model (late neointimal lesion formation). Type of data set: in vivo. The following applies: for percent inhibition of neointimal lesion formation: 28 days post-balloon injury. The protocol:
Inhibition of Late Neointimal Lesion Formation in the 28 Day Rat Carotid Artery Balloon Injury Model
Zoledronic acid is tested in the following rat model.
Rats are dosed orally with […]. Daily dosing starts 3 days prior to surgery and continues for 31 days. Rat carotid arteries are balloon injured using a method described by Clowes et al. Lab. Invest. 1983; 49; 208-215. Following sacrifice at 28 days post-balloon injury, carotid arteries are removed and processed for histologic and morphometric evaluation.

For data set [4], the system named is New Zealand White rabbit iliac arteries. The data set is described as follows: Rabbit iliac stent model, restenosis at 28 days. Type of data set: in vivo. The protocol: A combined angioplasty and stenting procedure is performed in New Zealand White rabbit iliac arteries. Iliac artery balloon injury is performed by inflating a 3.0×9.0 mm angioplasty balloon in the mid-portion of the artery followed by “pull-back” of the catheter for 1 balloon length. Balloon injury is repeated 2 times, and a 3.0×12 mm stent is deployed at 6 atm for 30 seconds in the iliac artery. Balloon injury and stent placement is then performed on the contralateral iliac artery in the same manner. A post-stent deployment angiogram is performed. All animals receive oral aspirin 40 mg/day daily as anti-platelet therapy and are fed standard low-cholesterol rabbit chow. Twenty-eight days after stenting, animals are anesthetized and euthanized and the arterial tree is perfused at 100 mmHg with lactated Ringer's for several minutes, then perfused with 10% formalin at 100 mmHg for 15 minutes. The vascular section between the distal aorta and the proximal femoral arteries is excised and cleaned of periadventitial tissue. The stented section of artery is embedded in plastic and sections are taken from the proximal, middle, and distal portions of each stent. All sections are stained with hematoxylin-eosin and Movat pentachrome stains. Computerized planimetry is performed to determine the area of the internal elastic lamina (IEL), external elastic lamina (EEL) and lumen. The neointima and neointimal thickness is measured both at and between the stent struts. The vessel area is measured as the area within the EEL. Data are expressed as mean±SEM. Statistical analysis of the histologic data is accomplished using analysis of variance (ANOVA) due to the fact that two stented arteries are measured per animal with a mean generated per animal. A P<0.05 is considered statistically significant.
Zoledronic acid is administered orally by gavage at 30 mg/kg once daily from 3 days prior to stenting until day 27 post-stenting.

Data set [5] can be described thus: Stability of zoledronic acid in human plasma. The following applies: 37° C. for 72 hours. Type of data set: in vitro ADME.
For data set [6], the system named is PDGF receptor immunocomplexes of BALB/c 3T3 cells. The following applies: free drug, day after day.
Method: PDGF-stimulated receptor tyrosine kinase assay is performed on the last piece of each sample to determine the zoledronic acid activity. The inhibition of PDGF-stimulated receptor tyrosine kinase activity in vitro is measured in PDGF receptor immunocomplexes of BALB/c 3T3 cells, analogously to the method described by E. Andrejauskas-Buchdunger and U. Regenass in Cancer Research 52, 5353-5358 (1992).
Setting [7] is: at 22 weeks, vs baseline lesions at 15 weeks and vehicle at 22 weeks.

Turning to `NCCC(O)(P(=O)(O)O)P(=O)(O)O` [pamidronate disodium, 3-amino-1-hydroxypropane-1,1-diphosphonic acid], in data set [1], the “arterial and valve calcification (radiographic images)” value is on record as “noticeable reduction”.
For `O=P(O)(O)C(O)(Cn1ccnc1)P(=O)(O)O` [zoledronic acid, 2-(imidazol-1yl)-1-hydroxyethane-1,1-diphosphonic acid], the “plaque phenotype (vulnerable or rupture-prone plaques)” value in data set [2] (10 mg/kg/day s.c., four weeks, at 22 weeks, vs baseline and vehicle) is recorded as “more stable phenotype”. Moreover, the “calcification of the aortic valves” value in data set [2] (10 mg/kg/day s.c., vs placebo-treated animals) is given as “significantly less calcification”. Moreover, the “progression of atherosclerosis in the aorta and innominate arteries” value in data set [2] (10 mg/kg/day s.c., weeks 15-18, read at 22 weeks of high cholesterol/cholic acid diet, vs vehicle) is “significantly reduced progression”. Also, in data set [2] (setting [7]), the “fibrous caps of atherosclerotic lesions” value is reported as “thicker fibrous caps”; the “inflammatory cells and areas of calcification in atherosclerotic lesions” value was “less inflammatory cells and areas of calcification”. Further, the “percent inhibition of neointimal lesion formation” value in data set [3] (0.5 mg/kg oral gavage) was 17%. The “percent inhibition of neointimal lesion formation” value in data set [3] (2.0 mg/kg oral gavage) turned out to be 37%. In addition, the “neointimal lesion formation at 28 days following balloon injury” value in data set [3] (oral, daily, dose of from 0.2 to 3.5 mg) was “significantly reduce”. Further, in data set [4] (30 mg/kg oral gavage once daily, vs placebo), the “extent of restenotic lesion formation” value is listed as “marked reduction”. Moreover, in data set [4] (30 mg/kg oral once daily), the “EEL area compared with control (constrictive remodeling or aneurysmal-type expansion)” value was “did not result in differences” and the “healing of the intima in stented arterial segments” value is given as “well healed”. Besides, in data set [4] (30 mg/kg oral once daily, P<0.0001), the “reduction in average neointimal thickness” value was 29%. Besides, the “reduction in percent arterial stenosis” value in data set [4] (30 mg/kg oral once daily, P<0.0002) amounted to 17%. Further, the “reduction in neointimal area” value in data set [4] (30 mg/kg oral once daily, P<0.04) came to 17%. Moreover, the “stability in human plasma” value in data set [5] is listed as “stable”. In data set [6], the “activity over time in the same assay” value is “strong decrease”.
